Test results as given in patent US20160015771A1, “METHOD OF TREATING OPTIC NERVE DAMAGE, OPHTHALMIC ISCHEMIA OR OPHTHALMIC REPERFUSION INJURY” (Curonz Holdings Company Limited, priority 2012, published 2016).

Tests used:
[1] = tested on: Retinal Ganglion Cells (RGC); assay: Retinal ganglion cell (RGC) survival by BRN3A staining of flat-mounted retinae after optic nerve ligation/reperfusion; type: in vivo, Male Long-Evans rats; settings: 8 days after injury
Experimental: Ischemia was maintained for 45 minutes.
At the end of the study, the animals were euthanized by intraperitoneal injection of overdosed pentobarbital. After euthanasia at day 8 after optic nerve ligation injury, the retinae of both eyes of N=6 animals per cohort were fixed in formalin 4% (1 h at room temperature), dissected and flat-mounted. The flat-mounted preparation was incubated with an Alexa 594 conjugated anti-BRN3A (Brain-specific homeobox/POU domain protein 3A, Chemicon, cat #mAb1585) to visualize the Retinal Ganglion Cells (RGC). Fluorescence was assessed by an Apotome microscope at magnification×20 (Zeiss) within twelve randomly selected respective microscopic fields per subject. The number of surviving RGC was determined with Axio Vision 4.2 software in the respective retinae areas.
Animals were sacrificed at day 8 and retinae were analysed for BrN3A (Brain-specific homeobox/POU domain protein 3A) protein expression patterns that are specific for retinal ganglion cells (RGCs). 12 fields per retina were evaluated.

[2] = tested on: ischemia-related optic nerve injury; settings: topically or intraperitoneal (IP) applied formulations; cited from earlier work

For `Brc1c(NC2=NCCN2)ccc2nccnc12` [Brimonidine], the “total RGCs rescued” value ([1]; relative to non-ischemic eyes, saline group 19.6%) is given as 39.6%, the RGC density ([1]; Brimonidine prophylactically applied, 1 mg/kg IP 1 h before ischemia, n=5, non-ischemic eyes 2158 RGCs/mm2) is given as 855.5±30.7 RGCs/mm2 and the neuroprotective activity [2] is given as “neuroprotective”.
